Measurements as given in patent publication US5391540A, “Substituted pyridine compounds” (Rohm and Haas Company, priority 1993, dated 1995).

Experiments:
Format in all cases: in vivo
Downy Brome = experiment: Pre-emergent herbicidal activity (Table A); conditions: Bromus tectorum, pre-emergence, Dobr, 11.2 kg/ha, 10-14 days, read-out: herbicidal rating (% inhibition)
How it was run: (§1)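 Percent inhibition per species, scored on a rating scale, after pre-emergent soil incorporation: test compound in acetone or water carrier mixed into cover soil, layered over seeded topsoil or vegetative propagules.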

Velvetleaf = experiment: Pre-emergent herbicidal activity (Table A); conditions: Abutilon theophrasti, pre-emergence, Vele, 11.2 kg/ha, 10-14 days, read-out: herbicidal rating (% inhibition)
How it was run: as §1

Morningglory = experiment: Pre-emergent herbicidal activity (Table A); conditions: Ipomoea, pre-emergence, Mogl, 11.2 kg/ha, 10-14 days, read-out: herbicidal rating (% inhibition)
How it was run: as §1

Yellow Nutsedge = experiment: Pre-emergent herbicidal activity (Table A); conditions: Cyperus, pre-emergence, Yens, 11.2 kg/ha, 10-14 days, read-out: herbicidal rating (% inhibition)
How it was run: as §1

Cocklebur = experiment: Pre-emergent herbicidal activity (Table A); conditions: Xanthium strumarium, pre-emergence, Cobu, 11.2 kg/ha, 10-14 days, read-out: herbicidal rating (% inhibition)
How it was run: as §1

Barnyardgrass = experiment: Pre-emergent herbicidal activity (Table A); conditions: Echinochloa crus-galli, pre-emergence, Bygr, 11.2 kg/ha, 10-14 days, read-out: herbicidal rating (% inhibition)
How it was run: as §1

Corn = experiment: plant injury after spraying emerged plants (Table D); design: scale not given here
From the text: (§2) Topsoil (silt loam) is sieved through a screen having 1.27 cm openings. […] This mixture is steam sterilized and then placed in aluminum pans 6.985 cm deep having ten holes in the bottom each 0.635 cm in diameter. The soil mixture is compacted to a depth of 1.27 cm. from the top of the pan. A predetermined number of seeds of each of several dicotyledonous and monocotyledonous annual plant species and/or vegetative propagules for the perennial plant species are placed on the soil and pressed into the soil surface. The seeds and/or vegetative propagules are covered with 1.27 cm of a mixture of 50% topsoil and 50% of a mixture of Canadian sphagnum peat moss, vermiculite and a wetting agent. The pans are then placed on a capillary mat on a greenhouse bench and subirrigated as needed.
(§3) In the following Table D the legends used to identify the plant species are the same as those used in the preceding Table B.

Grso = experiment: as above; design: scale not given here
From the text: as §2, §3

Lacg = experiment: as above; design: scale not given here
From the text: as §2, §3

Sobe = experiment: as above; design: scale not given here
From the text: as §2, §3

Grft = experiment: as above; design: scale not given here
From the text: as §2, §3

Mogl = experiment: as above; design: scale not given here
From the text: as §2, §3

Cobu = experiment: as above; design: scale not given here
From the text: as §2, §3

Whez = experiment: as above; design: scale not given here
From the text: as §2, §3

Bygr = experiment: as above; design: scale not given here
From the text: as §2, §3

Dobr = experiment: as above
From the text: Topsoil (silt loam) is sieved through a screen having 1.27 cm openings. In some of the tests the soil was mixed with fertilizer (1225 g/cu. m of 12/5/9 containing isobutylidene diurea), while in other tests the fertilizer was omitted. This mixture is steam sterilized and then placed in aluminum pans 6.985 cm deep having ten holes in the bottom each 0.635 cm in diameter. The soil mixture is compacted to a depth of 1.27 cm. from the top of the pan. A predetermined number of seeds of each of several dicotyledonous and monocotyledonous annual plant species and/or vegetative propagules for the perennial plant species are placed on the soil and pressed into the soil surface. The seeds and/or vegetative propagules are covered with 1.27 cm of a mixture of 50% topsoil and 50% of a mixture of Canadian sphagnum peat moss, vermiculite and a wetting agent. The pans are then placed on a capillary mat on a greenhouse bench and subirrigated as needed. After the plants reach the desired stage (9 to 14 days, 1 to 3 true leaf stage), each pan (except the control pans) is removed to a spraying chamber and sprayed by means of an atomizer, operating at a spray pressure of 170.3 kPa ([…]) at the application rates noted in Table D. In the spray solution is an amount of an emulsifying agent mixture (35% butylamine salt of dodecylbenzenesulfonic acid and 65% tall oil condensed with ethylene oxide in the ratio of 11 mols of ethylene oxide/mol of tall oil) to give a spray solution or suspension. The spray solution or suspension contains a sufficient amount of the candidate chemical in order to give application rates of the active ingredient corresponding to those shown in Table D below while applying a total amount of solution or suspension equivalent to 1870 L/Ha (200 gallons/acre). The pans are returned to the greenhouse and watered as before and the injury to the plants as compared to the control pans is observed at approximately 10-14 days (usually 11 days).
as §3

COC(=O)c1c(O)nc(C(F)(F)F)c(C(=O)OC)c1CC(C)C [Compound 1, 3,5-pyridinedicarboxylic acid, 2-hydroxy-4-(2-methylpropyl)-6-(trifluoromethyl)-, dimethyl ester]
3: plant injury rating, Lacg (Lacg; 0.0701 kg/ha) | plant injury rating, Lacg (Lacg; 1.1210 kg/ha) | plant injury rating, Lacg (Lacg; 5.3808 kg/ha) | plant injury rating, Sobe (Sobe; 5.3808 kg/ha)
4: plant injury rating, Cobu (Cobu; 5.3808 kg/ha)
0: plant injury rating, Corn (Corn; 0.0701 kg/ha) | plant injury rating, Corn (Corn; 0.2803 kg/ha) | plant injury rating, Grso (Grso; 0.0701 kg/ha) | plant injury rating, Grso (Grso; 0.2803 kg/ha) | plant injury rating, Grso (Grso; 1.1210 kg/ha) | plant injury rating, Grft (Grft; 0.0701 kg/ha) | plant injury rating, Grft (Grft; 0.2803 kg/ha) | plant injury rating, Cobu (Cobu; 0.0701 kg/ha) | plant injury rating, Cobu (Cobu; 0.2803 kg/ha) | plant injury rating, Cobu (Cobu; 1.1210 kg/ha) | plant injury rating, Whez (Whez; 0.0701 kg/ha) | plant injury rating, Whez (Whez; 0.2803 kg/ha) | plant injury rating, Whez (Whez; 1.1210 kg/ha) | plant injury rating, Whez (Whez; 5.3808 kg/ha) | plant injury rating, Bygr (Bygr; 0.0701 kg/ha) | plant injury rating, Dobr (Dobr; 0.0701 kg/ha) | plant injury rating, Dobr (Dobr; 0.2803 kg/ha) | plant injury rating, Dobr (Dobr; 1.1210 kg/ha) | plant injury rating, Dobr (Dobr; 5.3808 kg/ha)
2: plant injury rating, Corn (Corn; 1.1210 kg/ha) | plant injury rating, Corn (Corn; 5.3808 kg/ha) | plant injury rating, Sobe (Sobe; 0.2803 kg/ha)
1: plant injury rating, Sobe (Sobe; 1.1210 kg/ha) | plant injury rating, Mogl (Mogl; 1.1210 kg/ha) | plant injury rating, Bygr (Bygr; 1.1210 kg/ha)
0 to 24%: inhibition at 11200 g/ha (Downy Brome) | inhibition at 11200 g/ha (Velvetleaf) | inhibition at 11200 g/ha (Morningglory) | inhibition at 11200 g/ha (Yellow Nutsedge) | inhibition at 11200 g/ha (Cocklebur) | inhibition at 11200 g/ha (Barnyardgrass)

COC(=O)c1c(OC)nc(C(F)(F)F)c(C(=O)Cl)c1CC1CC1 [Compound 113, 3-pyridinecarboxylic acid, 5-(chlorocarbonyl)-4-(cyclopropylmethyl)-2-methoxy-6-(trifluoromethyl)-, methyl ester]
1: plant injury rating, Sobe (Sobe; 5.6050 kg/ha) | plant injury rating, Mogl (Mogl; 5.6050 kg/ha)
25 to 49%: inhibition at 11200 g/ha (Velvetleaf) | inhibition at 11200 g/ha (Morningglory)
0: plant injury rating, Corn (Corn; 0.2803 kg/ha) | plant injury rating, Corn (Corn; 1.1210 kg/ha) | plant injury rating, Corn (Corn; 5.6050 kg/ha) | plant injury rating, Grso (Grso; 0.2803 kg/ha) | plant injury rating, Grso (Grso; 1.1210 kg/ha) | plant injury rating, Grso (Grso; 5.6050 kg/ha) | plant injury rating, Lacg (Lacg; 0.2803 kg/ha) | plant injury rating, Lacg (Lacg; 1.1210 kg/ha) | plant injury rating, Sobe (Sobe; 0.2803 kg/ha) | plant injury rating, Sobe (Sobe; 1.1210 kg/ha) | plant injury rating, Grft (Grft; 0.2803 kg/ha) | plant injury rating, Grft (Grft; 1.1210 kg/ha) | plant injury rating, Grft (Grft; 5.6050 kg/ha) | plant injury rating, Mogl (Mogl; 0.2803 kg/ha) | plant injury rating, Mogl (Mogl; 1.1210 kg/ha) | plant injury rating, Cobu (Cobu; 0.2803 kg/ha) | plant injury rating, Cobu (Cobu; 1.1210 kg/ha) | plant injury rating, Cobu (Cobu; 5.6050 kg/ha) | plant injury rating, Whez (Whez; 0.2803 kg/ha) | plant injury rating, Whez (Whez; 1.1210 kg/ha) | plant injury rating, Whez (Whez; 5.6050 kg/ha) | plant injury rating, Bygr (Bygr; 0.2803 kg/ha) | plant injury rating, Bygr (Bygr; 1.1210 kg/ha) | plant injury rating, Bygr (Bygr; 5.6050 kg/ha) | plant injury rating, Dobr (Dobr; 0.2803 kg/ha) | plant injury rating, Dobr (Dobr; 1.1210 kg/ha) | plant injury rating, Dobr (Dobr; 5.6050 kg/ha)
0 to 24%: inhibition at 11200 g/ha (Yellow Nutsedge) | inhibition at 11200 g/ha (Cocklebur)
75 to 100%: inhibition at 11200 g/ha (Downy Brome) | inhibition at 11200 g/ha (Barnyardgrass)
2: plant injury rating, Lacg (Lacg; 5.6050 kg/ha)
